Measured values taken from patent US11633459B2, “GIP derivatives and uses thereof” (priority 2018, dated 2023).

Assays:
[1] = Sub-chronic in vivo study in DIO mice: food intake and body weight; design: species or system DIO male C57BL/6J mice; settings: Tables 6-8, compound 47 2 nmol/kg, GIP derivatives 30 nmol/kg
Source text: (§1) The purpose of this example is to assess the in vivo effect of the GIP derivatives of the present invention alone and in combination with a GLP-1 receptor agonist on food intake, body weight, and glucose tolerance in diet-induced obese (DIO) mice. The GLP-1 receptor agonist used for this example was a semaglutide-like molecule that has the same pharmacological properties as semaglutide, but a slightly different structure. The compound may be synthesised using methods known in the art, e.g. as described by methods of present Example 1 or as described in WO 2006/097537, example 4.
(§2) The animals were treated once daily with the GLP-1 receptor agonist (compound no. 47) and/or a GIP derivative of the present invention exemplified by compound no.'s 5, 25 and 31, to assess weight loss, efficacy and glucose tolerance. Animals and Diet
All animal protocols were approved by an Institutional Animal Care and Use Committee and Ethical Review Committee of Novo Nordisk. Animals were housed according to Novo Nordisk rodent housing standards, and were given ad libitum access to food and water under controlled lighting (12 h:12 h light/dark cycle; lights off 18:00-06:00), temperature (23±2° C.) and relative humidity (50±20%) conditions. […]
Body weight (BW) and food intake were measured immediately prior to dosing each day. […]

[2] = Sub-chronic in vivo study in DIO mice: IPGTT (intraperitoneal glucose tolerance test); design: species or system DIO male C57BL/6J mice; settings: Tables 6-8, compound 47 2 nmol/kg, GIP derivatives 30 nmol/kg
Source text: as §1, §2
All animal protocols were approved by an Institutional Animal Care and Use Committee and Ethical Review Committee of Novo Nordisk. […]
On the day of the glucose tolerance test (day 15), animals were fasted for 4 h. […] Tail blood glucose levels were measured and mice were injected (t=0) with an intra-peritoneal (i.p.) glucose load of 2 g/kg (200 mg/ml glucose solution, dose volume 10 ml/kg). Tail blood glucose levels were measured at times 0, 15, 30, 60, 90, 120 minutes following the i.p. glucose load. […]

[3] = Dynamic Light Scattering Stability Index (DLS-SI); type: physicochemical; settings: concentration only 5 μM instead of 250 μM, pH 7.4, 25° C.
[4] = Chemical stability: HMWP formation by SEC-MS; type: physicochemical; settings: 250 μM, pH 7.4, 37° C., 4 weeks
Method: The aim of this study is to determine the chemical stability of GIP derivative compositions. As a measure of stability of the GIP derivative composition, the formation of high molecular weight peptide formation (% HMWP) as a function of time was analysed by size-exclusion chromatography (SEC-MS). Further, the purity loss of the GIP derivative compositions was measured by LCMS. Samples for chemical stability assays were freshly prepared before each assay. […] The pH of the sample was adjusted to the desired value using appropriate amounts of concentrated NaOH and HCl. […] Formation of covalent oligomers (HMWPs) was analysed and identified by a SEC-MS method. […] The LC system was coupled to both a TUV detector operated at 215 nm, 10 Hz and a high resolution QToF mass spectrometer from Waters (Synapt G2S) operated in positive ion mode and m/z range of 100 to 4000 with normal resolution setting. Lock mass correction against Leu-Enkephalin was done every 31 sec. Spectra were processed in MassLynx version 4.1 and MaxEnt deconvoluted.

human GIP receptor = target: T1, human GIP receptor (Homo sapiens, UniProt P48546); assay: In vitro potency, CRE luciferase reporter gene assay, whole BHK cells expressing human GIP receptor; type: cell-based; settings: 0.2% HSA
T1 construct: expressed in transfected cells; host or cells: BHK cells (parent line BHKTS13), clone BHK CRE luc2P hGIPR clone #5
T1 sequence (P48546 22-466): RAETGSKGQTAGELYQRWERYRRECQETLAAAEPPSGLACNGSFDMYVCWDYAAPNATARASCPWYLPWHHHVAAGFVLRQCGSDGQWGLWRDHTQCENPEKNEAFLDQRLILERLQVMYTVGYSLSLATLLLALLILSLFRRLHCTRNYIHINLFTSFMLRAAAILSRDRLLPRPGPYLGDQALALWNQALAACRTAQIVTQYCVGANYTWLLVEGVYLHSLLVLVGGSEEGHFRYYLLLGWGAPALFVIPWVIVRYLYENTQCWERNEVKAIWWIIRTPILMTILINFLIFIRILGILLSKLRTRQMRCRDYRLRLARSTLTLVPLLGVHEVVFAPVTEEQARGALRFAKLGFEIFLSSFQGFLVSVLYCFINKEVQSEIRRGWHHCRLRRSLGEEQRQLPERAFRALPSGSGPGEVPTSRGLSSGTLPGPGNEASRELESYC
Method: In Vitro Potency (CRE Luciferase; Whole Cells)
The in vitro potency is the measure of human GIP, GLP-1 or glucagon receptor activation, respectively, in a whole cell assay.
In vitro potency was determined by measuring the response of the human GIP, GLP-1 or glucagon receptor in a reporter gene assay in individual cell lines. […] When the respective receptor is activated it results in the production of cAMP, which in turn results in the luciferase protein being expressed. When assay incubation is completed the luciferase substrate (luciferin) is added and the enzyme converts luciferin to oxyluciferin to produce bioluminescence. The luminescence is measured as the readout for the assay.
The cells were derived from a clone containing the CRE luciferase element and were established by further transfection with the respective receptor to obtain the current clone.
The cells were cultured at 5% CO2 in Cell Culture Medium. They were aliquoted and stored in liquid nitrogen. The cells were kept in passage and were seeded out the day before each assay.
The Assay Buffer consisted of 1% ovalbumin and 0.1% Pluronic F-68 in Assay Medium with the addition of human serum albumin at twice the indicated concentrations.
1) Cells were plated at 5000 cells/well and incubated overnight.
2) Cells were washed three times in PBS.
3) Assay Medium (50 μl aliquot) with or without serum albumin was added to each well in the assay plate.
4) Stocks of the test compounds and reference compounds were diluted to a concentration of 0.2 μM in Assay Buffer. […] 8) The cells were washed three times with PBS plus some liquid in each well. 9) A 100 μl aliquot of steadylite plus reagent was added to each well of the assay plate (reagent was light sensitive). 10) Each assay plate was covered with aluminum foil to protect it from light and shaken for 30 min at room temperature. 11) Each assay plate was read in a microtiter plate reader. Calculations and Results
The data from the microtiter plate reader was transferred to GraphPad Prism software. The software performs a non-linear regression (log(agonist) vs response).
A minimum of two replicates was measured for each sample. The reported values are averages of the replicates.

in vivo = settings: female, Göttingen, minipig, iv, 5 nmol/kg
Method: Pharmacokinetic Study in Minipigs
The purpose of this study is to determine the half-life in vivo of the derivatives of the present invention after i.v. administration to minipigs, i.e. the prolongation of their time in the body and thereby their time of action. This is done in a pharmacokinetic (PK) study, where the terminal half-life of the derivative in question is determined. By terminal half-life is generally meant the period of time it takes to halve a certain plasma concentration, measured after the initial distribution phase.
Female Göttingen minipigs were obtained from Ellegaard Göttingen Minipigs (Dalmose, Denmark) approximately 7-14 months of age and weighing from approximately 16-35 kg were used in the studies. The minipigs were housed individually and fed restrictedly once daily with SDS minipig diet (Special Diets Services, Essex, UK).
After at 3 weeks of acclimatisation two permanent central venous catheters were implanted in vena cava caudalis in each animal. The animals were allowed 1 week recovery after the surgery, and were then used for repeated pharmacokinetic studies with a suitable wash-out period between successive derivative dosing.
Blood samples (for example 0.8 ml) were collected in EDTA buffer (8 mM) and then centrifuged at 4° C. and 1942G for 10 minutes.
Individual plasma concentration-time profiles were analysed by a non-compartmental model in Phoenix WinNonLin ver. […] (Pharsight Inc., Mountain View, Calif., USA), and the resulting terminal half-lives (harmonic mean) determined.

In the case of “N{1}-acetyl,N{Epsilon-24}-[(4S)-4-carboxy-4-[[(4S)-4-carboxy-4-[[(4S)-4-carboxy-4-[[4-[(19-carboxynonadecanoylamino)methyl]cyclohexanecarbonyl]amino]butanoyl]-amino]butanoyl]amino]butanoyl]-[D-Tyr1,Nle14,Arg18,Aib20,Lys24]-hGIP(1-31) [Compound 25]”, the “effect on food intake and body weight (in words)” value [1] is reported as “minor effect on food intake” and the “effect on glucose tolerance (in words)” value [2] is reported as “improved glucose tolerance”.

In the case of `CC[C@H](C)[C@H](NC(=O)[C@H](CO)NC(=O)[C@H](Cc1ccc(O)cc1)NC(=O)[C@H](CC(=O)O)NC(=O)[C@H](CO)NC(=O)[C@@H](NC(=O)[C@H](Cc1ccccc1)NC(=O)[C@@H](NC(=O)CNC(=O)[C@H](CCC(=O)O)NC(=O)[C@H](C)NC(=O)[C@@H](N)Cc1ccc(O)cc1)[C@@H](C)O)[C@@H](C)CC)C(=O)N[C@@H](C)C(=O)N[C@@H](CCSC)C(=O)N[C@@H](CC(=O)O)C(=O)N[C@@H](CCCCN)C(=O)N[C@H](C(=O)N[C@@H](Cc1c[nH]cn1)C(=O)N[C@@H](CCC(N)=O)C(=O)N[C@@H](CCC(N)=O)C(=O)N[C@@H](CC(=O)O)C(=O)N[C@@H](Cc1ccccc1)C(=O)N[C@H](C(=O)N[C@@H](CC(N)=O)C(=O)N[C@@H](Cc1c[nH]c2ccccc12)C(=O)N[C@@H](CC(C)C)C(=O)N[C@@H](CC(C)C)C(=O)N[C@@H](C)C(=O)N[C@@H](CCC(N)=O)C(=O)N[C@@H](CCCCN)C(=O)NCC(=O)O)C(C)C)[C@@H](C)CC` [hGIP(1-31)], the DLS-SI precipitates [3] is reported as “formation of large aggregates became visible as precipitation” and the “HMWP formation (%/month)” value [4] is reported as 0.15 %/month.

In the case of “N^6,26-{18-[N-(17-carboxyheptadecanoyl)-D-γ-glutamyl]-10-oxo-3,6,12,15-tetraoxa-9,18-diazaoctadecanoyl}-[8-(2-amino-2-propanoic acid), 34-L-arginine]human glucagon-like peptide 1(7-37) [Compound 47, reference compound]”, the “effect on food intake and body weight (in words)” value [1] is reported as “induced a reduction in food intake that resulted in body weight loss” and the “effect on glucose tolerance (in words)” value [2] is reported as “improvement in glucose tolerance”.

In the case of `CC[C@H](C)[C@H](NC(=O)[C@H](CO)NC(=O)[C@H](Cc1ccc(O)cc1)NC(=O)[C@H](CC(=O)O)NC(=O)[C@H](CO)NC(=O)[C@@H](NC(=O)[C@H](Cc1ccccc1)NC(=O)[C@@H](NC(=O)CNC(=O)[C@H](CCC(=O)O)NC(=O)[C@H](C)NC(=O)[C@@H](N)Cc1ccc(O)cc1)[C@@H](C)O)[C@@H](C)CC)C(=O)N[C@@H](C)C(=O)N[C@@H](CCSC)C(=O)N[C@@H](CC(=O)O)C(=O)N[C@@H](CCCCN)C(=O)N[C@H](C(=O)N[C@@H](Cc1c[nH]cn1)C(=O)N[C@@H](CCC(N)=O)C(=O)N[C@@H](CCC(N)=O)C(=O)N[C@@H](CC(=O)O)C(=O)N[C@@H](Cc1ccccc1)C(=O)N[C@H](C(=O)N[C@@H](CC(N)=O)C(=O)N[C@@H](Cc1c[nH]c2ccccc12)C(=O)N[C@@H](CC(C)C)C(=O)N[C@@H](CC(C)C)C(=O)N[C@@H](C)C(=O)N[C@@H](CCC(N)=O)C(=O)N[C@@H](CCCCN)C(=O)NCC(=O)N[C@@H](CCCCN)C(=O)N[C@@H](CCCCN)C(=O)N[C@@H](CC(N)=O)C(=O)N[C@@H](CC(=O)O)C(=O)N[C@@H](Cc1c[nH]c2ccccc12)C(=O)N[C@@H](CCCCN)C(=O)N[C@@H](Cc1c[nH]cn1)C(=O)N[C@@H](CC(N)=O)C(=O)N[C@H](C(=O)N[C@H](C(=O)N[C@@H](CCC(N)=O)C(=O)O)[C@@H](C)O)[C@@H](C)CC)C(C)C)[C@@H](C)CC` [hGIP(1-42)], the “HMWP formation (%/month)” value [4] is reported as 2.0 %/month.

With `CCCC[C@H](NC(=O)[C@H](C)NC(=O)[C@@H](NC(=O)[C@H](CO)NC(=O)[C@H](Cc1ccc(O)cc1)NC(=O)[C@H](CC(=O)O)NC(=O)[C@H](CO)NC(=O)[C@@H](NC(=O)[C@H](Cc1ccccc1)NC(=O)[C@@H](NC(=O)CNC(=O)[C@H](CCC(=O)O)NC(=O)C(C)(C)NC(=O)[C@@H](Cc1ccc(O)cc1)NC(C)=O)[C@@H](C)O)[C@@H](C)CC)[C@@H](C)CC)C(=O)N[C@@H](CC(=O)O)C(=O)N[C@@H](CCCCN)C(=O)N[C@H](C(=O)N[C@@H](CCCNC(=N)N)C(=O)N[C@@H](CCC(N)=O)C(=O)N[C@@H](CCC(N)=O)C(=O)N[C@@H](CC(=O)O)C(=O)N[C@@H](Cc1ccccc1)C(=O)N[C@H](C(=O)N[C@@H](CCCCNC(=O)CC[C@H](NC(=O)CC[C@H](NC(=O)CC[C@H](NC(=O)CCCCCCCCCCCCCCCCC(=O)O)C(=O)O)C(=O)O)C(=O)O)C(=O)N[C@@H](Cc1c[nH]c2ccccc12)C(=O)N[C@@H](CC(C)C)C(=O)N[C@@H](CC(C)C)C(=O)N[C@@H](C)C(=O)N[C@@H](CCC(N)=O)C(=O)N[C@@H](CCCCN)C(=O)NCC(=O)O)C(C)C)[C@@H](C)CC` [Compound 5, N{1}-acetyl, N{Epsilon-24}-[(4S)-4-carboxy-4-[[(4S)-4-carboxy-4-[[(4S)-4-carboxy-4-(17-carboxyheptadecanoylamino)butanoyl]amino]butanoyl]amino]butanoyl]-[D-Tyr1,Aib2,Nle14,Arg18,Lys24]-hGIP(1-31)] the EC50 (human GIP receptor) was 0.0209 nM and the half-life (in vivo) was 79 h.
